Assay results as given in patent publication US6562837B1, “Use of tetrahydroisoquinoline compounds for the treatment of septicemia” (Korea Institute of Science & Technology, priority 1998, dated 2003).
Where two headings read alike, the source gives them in different places.

Assays:
[1] = test system: acute thrombosis in the pulmonary artery; assay: Acute thrombosis (collagen plus epinephrine i.v.) in mice, recovery from paralysis; assay type: in vivo
Description: A mixture of collagen (300:μg/kg) plus epinephrine (30:μg/kg) was injected into the tail vein of mice (ICR; […], the same mice were employed in all of the following experiments) to induce massive, acute thrombosis in the pulmonary artery. Thus, an acute thrombosis model, in which mice were paralyzed in 1-3 min after the injection and most of them died within 15 min was prepared. To investigate the effect of the compounds of Chemical Formulas 1 and 2 on the acute thrombosis, either of the compounds was orally administered to mice for 1 or 3 days. The intravenous injection of the mixture of collagen and epinephrine was conducted 1 hour after the final oral administration. An observation was taken to examine the mortality change and the recovery from the paralysis and the results are given in Tables 4 and 5, below.
Most of the mice were paralyzed within 1 min after the injection, following dilation of the pupils, difficult breathing, and convulsions. Most of the mice either died within 5 min or were subjected to paralysis for 15 min or longer. Only a few of them recovered from the paralysis.

LPS-caused death = assay: Preventive effect on LPS-caused death in mice; assay type: in vivo; details: for survival rate until 48 hours: 10 mg/kg i.p. 30 min before LPS (20 mg/kg i.p.), LPS only about 20%; for deaths up to 30 hours after the LPS injection: 20 mg/kg i.p. 30 min before LPS (20 mg/kg i.p.)
Description: When a large quantity of LPS is injected into animals, various diseases, such as DIC, are generated and they are dead of septic shock in a short period of time. In this experiment, LPS (20 mg/kg) was intraperitoneally injected into mice and the number of mice which were alive for 48 hours after the injection, was counted. Also, an examination was made of the influence of test drugs on the survival ratio.
LPS (20 mg/kg) was administered to mice by injection (i.p.), after which the mice alive were countered every 6 hours for 48 hours. 30 min before LPS injection, test drugs were intraperitoneally injected into the mice to examine the preventive effect on the LPS-caused death.

[2] = test system: thrombus formation in AVS tube; assay: Thrombus formation in arterio-venous shunt (AVS) tube in rats; assay type: in vivo; details: for Weight (mg) of thrombus: control 42.67 ± 5.381
Description: An AVS tube was prepared. For this, a scalp vein set was cut into a length of 18 cm, and each end was connected to a 18G syringe needle while a 100% cotton thread 5 cm long was fixed to the center of the tube. Rats were anesthetized with ketamine (250 mg/kg) by injection (i.m.) and underwent laparotomy. An AVS tube filled with saline was installed between the abdominal aorta and the renal vein in such a way that its one syringe needle was inserted in the abdominal aorta and the other syringe needle was inserted in the renal vein. Blood was allowed to pass through the AVS tube so as to form thrombus on the cotton thread. After circulation of blood through the AVS tube for 15 min, the thread was taken out from the AVS tube. The weight of the thrombus formed on the cotton thread was determined by weighing the thread.

human platelets = assay: Inhibitory effect on platelet aggregation in human platelet rich plasma; assay type: cell-based
Description: For experiment, a blood platelet concentrate which was purchased from the Blood Bank of the Seoul National University Hospital, Korea, was measured for the number of platelets with the aid of a platelet analyzer (PLT-4, Texas Instruments), and diluted with phosphate buffered saline (hereinafter referred to as “PBS”) to give platelet rich plasma (hereinafter referred to as “PRP”) which ranged, in platelet number, from 300×10^6 to 400×10^6/ml. After being incubated at 37° C. for 3 min, PRP was added with ADP, collagen or epinephrine to induce platelet aggregation. The reduction in turbidity of PRP was observed and the degree of aggregation was monitored using a platelet aggregometer, such as that manufactured by Chrono-Log Corp. U.S.A., identified as “Model 500VS”.
The inhibitory activities of sample compounds against the platelet aggregation were evaluated as the % inhibition calculated according to the following equation: […]
A: aggregation degree of platelets obtained when adding a platelet aggregation inducer alone;
B: aggregation degree of platelets obtained when adding a combination of a platelet aggregation inducer and a sample.
Obtained using human platelets, the inhibitory effects of the compounds of Chemical Formulas 1 and 2 on platelet aggregation are given, along with the results from the control higenamine, in Table 1, below.

α-receptor = assay: Binding affinity to α-adrenoceptor, [3H]prazosin, rat cerebral cortical membrane; details: [3H]prazosin 200 pM, 25° C., 30 min, read-out: Dissociation constant Ki (M) for cerebral α-receptor of rat
Description: For this, the cerebral cortex obtained from rats (Sprague-Dawley, 250±20 g; unless particularly mentioned, the same rats were used in the following experiments) was homogeneously mixed with a 20× buffer (50 mM Tris, 5 mM MgSO4, 1 mM EDTA, 1 mM ascorbic acid, pH 7.7) and then, centrifuged three times at 35,000×g for 15 min and the pellet was stored at −70° C. A solution of 5 mg of the pellet in 1 ml of the buffer was incubated, along with [^3H]prazosin (200 pM) and samples, at 25° C. for 30 min followed by adding 10 ml of a buffer (50 mM Tris, pH 7.7) to quench the binding reaction. The resulting solution was filtered through a Whatman GF/C glass microfiber filter which was then shaken for 2 hours while being completely submerged in a scintillation cocktail. The radioactivity was measured using a scintillation counter (Beckman, LS6500)

Rat thoracic aorta = assay: Relaxation of phenylephrine-contracted isolated rat thoracic aorta; assay type: cell-based
[3] = 10 mg/kg orally once for three successive days, recovered within 15 min
[4] = 10 mg/kg orally once for three successive days, recovered within 15 min, control 20%
[5] = 50 mg/kg orally once for three successive days, recovered within 15 min
[6] = 50 mg/kg orally once for three successive days, recovered within 15 min, control 20%
[7] = 50 mg/kg orally once, recovered from thrombotic paralysis within 15 min
[8] = 50 mg/kg orally once, recovered within 15 min, control 17%
[9] = 100 mg/kg orally once, recovered from thrombotic paralysis within 15 min
[10] = 100 mg/kg orally once, recovered within 15 min, control 17%
[11] = 10 mg/kg orally once a day for successive three days
[12] = 25 mg/kg orally once, first series, control 33.61 mg
[13] = 25 mg/kg orally once, first series, control 33.61 ± 7.620
[14] = 50 mg/kg orally once a day for successive three days
[15] = 50 mg/kg orally once, second series, control 39.54 mg
[16] = 50 mg/kg orally once, second series, control 39.54 ± 5.625
[17] = Homo sapiens, read-out: IC50 (M), ADP-induced platelet aggregation
[18] = human PRP, inducer collagen 2-4 × 10^−6 g/ml, read-out: IC50 (M), collagen-induced platelet aggregation
[19] = human PRP, inducer epinephrine 2 × 10^−6 M, read-out: IC50 (M), epinephrine-induced platelet aggregation

SMILES | Mice Recovered, Number [1, 3] | Mice Recovered, % [1, 4] [%] | Mice Recovered, Number [1, 5] | Mice Recovered, % [1, 6] [%] | Mice Recovered, Number [1, 7] | Mice Recovered, % [1, 8] [%] | Mice Recovered, Number [1, 9] | Mice Recovered, % [1, 10] [%] | survival rate until 48 hours (LPS-caused death) [%] | % Inhibition of thrombus formation [2, 11] [%] | Weight (mg) of thrombus [2, 11] [mg] | % Inhibition of thrombus formation [2, 12] [%] | Weights (mg) of thrombus [2, 13] [mg] | % Inhibition of thrombus formation [2, 14] [%] | Weight (mg) of thrombus [2, 14] [mg] | % Inhibition of thrombus formation [2, 15] [%] | Weights (mg) of thrombus [2, 16] [mg] | IC50 (human platelets; [18]) [M] | IC50 (human platelets; [19]) [M] | Ki (α-receptor) [M] | also measured
Oc1cc2c(cc1O)C(Cc1cccc3ccccc13)NCC2 (stereo not drawn) [Compound 1, 1-α-naphthylmethyl-6,7-dihydroxy-1,2,3,4-tetrahydroisoquinoline] | 3 | 30 | 5 | 42 | 8 | 47 | 9 | 45 | 60 | 25.5 | 31.78 ± 8.385 | 39.7 | 20.27 ± 5.366 | 28.0 | 30.72 ± 6.334 | 24.8 | 29.72 ± 5.975 | 9.2e-05 | 3.4e-06 | 2.7e-07 | deaths up to 30 hours after the LPS injection (LPS-caused death): no mice were dead until 30 hours; IC50 (human platelets; [17]): 0.00073 M; IC50 (Rat thoracic aorta): 2.75 µM
Oc1cc2c(cc1O)C(Cc1ccc3ccccc3c1)NCC2 (stereo not drawn) [Compound 2, 1-β-naphthylmethyl-6,7-dihydroxy-1,2,3,4-tetrahydroisoquinoline] | 7 | 70 | 7 | 64 | 14 | 50 | 12 | 50 | 80 | 24.4 | 32.24 ± 4.836 | 32.5 | 22.68 ± 10.127 | 29.3 | 30.18 ± 6.571 | 27.7 | 28.58 ± 4.234 | 9.6e-06 | 6e-06 | 1.5e-07 | deaths up to 30 hours after the LPS injection (LPS-caused death): no mice were dead until 30 hours; IC50 (human platelets; [17]): 0.00086 M; IC50 (Rat thoracic aorta): 2.81 µM
Oc1ccc(CC2NCCc3cc(O)c(O)cc32)cc1 (centres unmarked) [Higenamine, reference compound] | 2 | 17 | 5 | 45 | 11 | 37 | 13 | 48 | 80 | 13.9 | 36.76 ± 7.964 | 31.6 | 22.98 ± 11.271 | 18.7 | 34.68 ± 8.513 | 25.1 | 29.61 ± 5.059 | 7e-05 | 1.9e-05 | 1.26e-06 | IC50 (human platelets; human PRP, inducer ADP 1 × 10^−3 M, read-out: IC50 (M), ADP-induced platelet aggregation): > 0.001 M; IC50 (Rat thoracic aorta): 1.02 µM
